Results on 2 molecules are retold here after patent US20230158084A1, “PROBIOTICS, METABOLITES, AND USES THEREOF” (California Institute of Technology, priority 2018, published 2023).

“Also recorded” adds a separate entry of the source.

The test system of assay [1] is BTBR mice. As to the kind of experiment: ASD-related behaviors overall (marble burying, direct social interaction, open field) in BTBR mice. The note with it: for ASD-related behaviors, administration post weaning: BTBR mice, 10 mM in drinking water to juvenile mice starting 3-4 weeks of age through adulthood; for ASD-related behaviors / symptoms, prenatal administration: BTBR mouse model, 10 mM orally in drinking water from before mating (conception) through adulthood. It counts as in vivo, mouse. The procedure: FIGS. 5A-D are a series of drawings illustrating that differential metabolites impact ASD-relevant behaviors in SPF mice in accordance with some embodiments herein. FIG. 5A: The abundance of select metabolites in the offspring microbiome is correlated with behavior of male offspring. Spearman correlation between the microbiome and mouse behavior, by donor (See FIGS. 1A-0). […] Color scale denotes Spearman ρ. […] Groups of mice were orally administered 10 mM Taurine or 5AV in drinking water before mating, and throughout their lifetime. Offspring were tested by marble burying, direct social interaction, and open field tests, and compared to untreated vehicle controls. Results are aggregated from 2 independent experiments. NControl=42, […]=52, NTaurine=36. Bar plots denote mean and S.E.M. Hypothesis on differences in means were tested by ANOVA on trimmed means (10%) and subsequent posthoc tests. FIGS. 5E-L: qPCR of BTBR brains after 5AV and taurine administration. Results are aggregated from 2 independent experiments. Hypothesis on differences in means were tested by ANOVA on trimmed means (10%) and subsequent posthoc tests. FIGS. 5M-V: series of graphs illustrating E18 B6 feeding 5AV and Taurine targeted metabolomics. […] In FIGS. 9A-K, mice were orally administered 10 mM Taurine or 5AV in drinking water starting 3-4 weeks of age mating, and throughout their lifetime. Offspring were tested by marble burying, direct social interaction, and open field tests, and compared to untreated vehicle controls. Results are aggregated from 2 independent experiments. NControl=20, […]=18, NTaurine=20. Bar plots denote mean and S.E.M. hypothesis on differences means were tested by ANOVA on trimmed means (10%) and subsequent posthoc tests. FIGS. 9L-Q illustrate basal properties of L5 pyramidal neurons in the mPFC. […] Taurine was orally administered to BTBR mice, a validated mouse model for ASD (McFarlane et al., 2008), from conception through adulthood to capture both prenatal and postnatal neurodevelopmental periods. […] It is will appreciated that the blood-brain barrier comprises endothelial cells, and selectively permits the movement of substances between circulating blood and the brain, for example permitting some molecules to pass from the blood to the brain, while preventing other molecules from passing from the blood to the brain. As such, it will be appreciated that at a given stage of development, some molecules may readily pass through the blood brain barrier, while others may not.

Assay [2] deals with pyramidal neurons in the L5 of the mPFC. Kind of assay: Electrophysiology in acute slices from treated BTBR mice (mEPSC, mIPSC, excitability). It counts as in vivo, mouse. The note with it: BTBR mice given 10 mM in drinking water starting 3-4 weeks of age. The procedure:
FIGS. 8A-E are a series of graphs illustrating effects of microbial metabolites on brain activity of mice in accordance with some embodiments herein. Mice were orally administered 10 mM Taurine or 5AV in drinking water starting 3-4 weeks of age mating, and throughout their lifetime. FIG. 8A illustrates effects on amplitude and frequency of mEPSCs in pyramidal neurons in the L5 of the mPFC in acute slices from BTBR mice treated with 5AV, Taurine, or control. FIG. 8B illustrates effects on amplitude and frequency of mIPSCs in pyramidal neurons in the L5 of the mPFC in acute slices from BTBR mice treated with 5AV, Taurine, or control. Hypotheses for FIGS. 8A-B were tested by ANOVA on trimmed means (10%) and subsequent post-hoc tests. FIG. 8C illustrates effects on excitability of pyramidal neurons in the L5 of the mPFC in acute slices from BTBR mice treated with 5AV, Taurine, or control in response to step-wise injection current, as measured by the number of action potential spikes. 2-way ANOVA. BTBR mice were orally administered 10 mM Taurine or 5AV in drinking water starting 3-4 weeks of age mating, and throughout their lifetime, and effects on the brain were observed. FIG. 8A illustrates effects on amplitude and frequency of mEPSCs in pyramidal neurons in the L5 of the mPFC in acute slices from BTBR mice treated with 5AV, Taurine, or control. FIG. 8B illustrates effects on amplitude and frequency of mIPSCs in pyramidal neurons in the L5 of the mPFC in acute slices from BTBR mice treated with 5AV, Taurine, or control. Hypotheses for FIGS. 8A-B were tested by ANOVA on trimmed means (10%) and subsequent post-hoc tests. FIG. 8C illustrates effects on excitability of pyramidal neurons in the L5 of the mPFC in acute slices from BTBR mice treated with 5AV, Taurine, or control in response to step-wise injection current, as measured by the number of action potential spikes. 2-way ANOVA.

The subject of assay [3] is BTBR mice. Kind of assay: Marble burying (MB), BTBR mice given metabolites. It counts as in vivo, mouse. The note with it: BTBR offspring; 10 mM in drinking water before mating and throughout lifetime (prenatal administration); vs untreated vehicle controls. The procedure:
FIGS. 5A-D are a series of drawings illustrating that differential metabolites impact ASD-relevant behaviors in SPF mice in accordance with some embodiments herein. FIG. 5A: The abundance of select metabolites in the offspring microbiome is correlated with behavior of male offspring. Spearman correlation between the microbiome and mouse behavior, by donor (See FIGS. 1A-0). […] Color scale denotes Spearman ρ. […] Groups of mice were orally administered 10 mM Taurine or 5AV in drinking water before mating, and throughout their lifetime. Offspring were tested by marble burying, direct social interaction, and open field tests, and compared to untreated vehicle controls. Results are aggregated from 2 independent experiments. NControl=42, […]=52, NTaurine=36. Bar plots denote mean and S.E.M. Hypothesis on differences in means were tested by ANOVA on trimmed means (10%) and subsequent posthoc tests. FIGS. 5E-L: qPCR of BTBR brains after 5AV and taurine administration. Results are aggregated from 2 independent experiments. Hypothesis on differences in means were tested by ANOVA on trimmed means (10%) and subsequent posthoc tests. […] The number of buried marbles (50% or more covered) was then recorded and photographed for reference. […] As such, it will be appreciated that at a given stage of development, some molecules may readily pass through the blood brain barrier, while others may not.

In another assay the test system is GABA receptor. The note with it: literature statement; cited from earlier work.

As for `NCCCCC(=O)O` [5AV, 5-Aminovaleric acid], in the assay with BTBR mice [1], the “ASD-related behaviors, administration post weaning” value is “did not rescue behavioral alterations; also recorded: no effects on ASD-related behaviors; also recorded: did not have these effects” and the “ASD-related behaviors / symptoms, prenatal administration” value (“ASD-related behaviors / symptoms” for short) is recorded as “significant improvement in ASD-related behaviors; also recorded: ameliorate ASD-related behavioral deficits; also recorded: reduces and/or prevents symptoms of ASD”. In addition, in assay [2], the mEPSC amplitude entry is “induced a decrease in mEPSC amplitude, it was not statistically significant” and the “other effects on neuron activity (mIPSCs, excitability; FIGS. 8B-E)” value was “not otherwise observed”. In the assay on BTBR mice [3], the “repetitive behavior, as measured by marble burying” value was “reduced repetitive behavior”. In the assay with GABA receptor, the GABA receptor agonism result is reported as “weak GABA receptor agonist”.

On to `NCCS(=O)(=O)O` [taurine], for which, in the assay on BTBR mice [1], the “ASD-related behaviors, administration post weaning” value is “did not rescue behavioral alterations; also recorded: did not have these effects” and the “ASD-related behaviors / symptoms” value is given as “significant improvement in ASD-related behaviors; also recorded: reduces and/or prevents symptoms of ASD”. In the assay with BTBR mice [1] (listed as Taurine), the “ASD-related behaviors, administration post weaning” value is listed as “no effects on ASD-related behaviors” and the “ASD-related behaviors / symptoms” value was “ameliorate ASD-related behavioral deficits”. In addition, the “other effects on neuron activity (mIPSCs, excitability; FIGS. 8B-E)” value in assay [2] was “not otherwise observed”. Moreover, the “repetitive behavior, as measured by marble burying” value in the assay with BTBR mice [3] is recorded as “significantly reduces repetitive behavior in male mice”. For the same molecule, in the assay on GABA receptor, the GABA receptor agonism entry is given as “weak GABA agonist”.
